Data: patent US10501482B2, “Compounds for treating spinal muscular atrophy” (Hoffmann-La Roche Inc., priority 2013, dated 2019)
Where a name gives a salt, the structure may show the parent alone.

Key:
[1] = test system: full length SMN2 minigene mRNA (FL SMN2mini) in HEK293H cells stably transfected with the SMN2-A minigene construct; experiment: SMN2 minigene mRNA splicing RT-qPCR assay in cultured cells; format: cell-based; conditions: Homo sapiens, HEK293-H, 24 hours, 7-point concentration curve, concentration giving 1.5-fold FL SMN2mini mRNA vs vehicle, read-out: EC1.5x minigene (EC1.5x concentration for production of full length SMN2 minigene mRNA)
Method in brief: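 Stably transfected HEK293H cells, 10,000/well in DMEM/10% FBS with hygromycin, attached 6 h, then received compound for 24 h at 37° C in duplicate at 7 concentrations. Multiplex RT-qPCR with GAPDH used primers that detect only the minigene. An efficiency-corrected ΔΔCt, GAPDH- and vehicle-normalized, gave EC1.5x concentrations.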

SMN protein = SMN protein assay (HTRF) in cultured SMA patient fibroblast cells; format: cell-based; conditions: SMA Type 1 human fibroblasts GM03813, 48 hours; for EC1.5x SMN protein (EC1.5x concentration for SMN protein expression): 7-point concentration curve, concentration giving 1.5 times SMN protein vs vehicle; for max. fold increase (maximum fold increase of SMN protein): 7-point concentration data, fold vs vehicle control
Method in brief: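 SMA patient fibroblasts seeded at 5,000 cells/well, treated 48 h at 37 °C in triplicate per concentration (7-point series). Lysed in RIPA with protease inhibitors; SMN read by HTRF (anti-SMN d2/kryptate, overnight RT), 665/620 nm ratio. ΔF vs blank, expressed as fold over vehicle; EC1.5x and maximum fold increase derived.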

Compound | EC (1.5-fold) [1] [µM] | EC1.5x SMN protein (EC1.5x concentration for SMN protein expression) (SMN protein) [µM] | max. fold increase (maximum fold increase of SMN protein) (SMN protein)
Cc1cn2cc(NC(=O)c3ccc(N4CC5(CNC5)C4)nc3)ccc2n1 [Example 16, N-(2-methyl-imidazo[1,2-a]-pyridin-6-yl)-6-(2,6-diazaspiro-[3,3]heptan-2-yl)nicotinamide hydrochloride] | 1.04 | 1.1992 | 1.6598
Cc1cn2cc(NC(=O)c3ccc(N4CCNCC4)nc3)cc(C(F)(F)F)c2n1 [Example 19, N-(2-methyl-8-(trifluoromethyl)-imidazo[1,2-a]-pyridin-6-yl)-6-(piperazin-1-yl)-nicotinamide] | 0.267 | 1.3818 | 1.664
Cc1cn2cc(NC(=O)c3ccc(N4CCN5CCC[C@H]5C4)nc3)cc(C(F)(F)F)c2n1 [Example 21, (S)-6-(hexahydro-pyrrolo[1,2-a]-pyrazin-2(1H)-yl)-N-(2-methyl-8-(trifluoromethyl)-imidazo[1,2-a]-pyridin-6-yl)-nicotinarnide] | 0.386 | 0.6542 | 1.7755
Cc1cn2cc(NC(=O)c3ccc(N4CC(C)NC(C)C4)nc3)cc(C(F)(F)F)c2n1 (stereo not drawn) [Example 22, 6-(3,5-dimethyl-piperazin-1-yl)-N-(2-methyl-8-(trifluoromethyl)-imidazo[1,2-a]-pyridin-6-yl)-nicotinamide] | 0.263 | 0.4468 | 1.7566
Cc1nc2c(F)cc(NC(=O)c3ccc(N4CC(C)NC(C)C4)nc3)cc2o1 (stereo not drawn) [Example 23, 6-(3,5-dimethyl-piperazin-1-yl)-N-(4-fluoro-2-methylbenzo[d]-oxazol-6-yl)-nicotinamide] | 0.201 | 0.5092 | 1.6942
Cc1nc2c(F)cc(NC(=O)c3ccc(N4CCN(C)CC4)nc3)cc2o1 [Example 24, N-(4-fluoro-2-methylbenzo[d]-oxazol-6-yl)-6-(4-methylpiperazin-1-yl)nicotinamide] | 0.649 | 1.2616 | 1.756
Cc1nc2c(F)cc(NC(=O)c3ccc(N4CCN5CCC[C@H]5C4)nc3)cc2o1 [Example 25, (S)-N-(4-fluoro-2-methylbenzo[d]oxa-zol-6-yl)-6-(hexa-hydropyrrolo[1,2-a]pyrazin-2-(1H)-yl)nicotinamide] | 0.382 | 0.5694 | 1.6652
Cc1nc2c(F)cc(NC(=O)c3ccc(N4CCNCC4)nc3)cc2o1 [Example 26, N-(4-Fluoro-2-methylbenzo-oxazol-6-yl)-6-piperazin-1-yl-nicotinamide] | 0.0445 | 0.2853 | 1.8316
Cc1nc2c(F)cc(NC(=O)c3ccc(N4CCNCC4)cc3)cc2o1 [Example 28, N-(4-fluoro-2-methylbenzo[d]-oxazol-6-yl)-4-(piperazin-1-yl)benzamide] | 0.252 | 0.2868 | 1.7291
Cc1nc2c(F)cc(NC(=O)c3ccc(N4CC(C)NC(C)C4)cc3)cc2o1 (stereo not drawn) [Example 30, 4-(3,5-dimethyl-piperazin-1-yl)-N-(4-fluoro-2-methyl-benzo[d]oxazol-6-yl)benzamide] | 0.41 | 0.7612 | 1.6734
Cc1cn2cc(NC(=O)c3ccc(N4CCN5CCC[C@H]5C4)cc3F)ccc2n1 [Example 31, (S)-2-fluoro-4-(hexahydropyrrolo[1,2-a]pyrazin-2(1H)-yl)-N-(2-methylimidazo[1,2-a]pyridin-6-yl)benzamide] | 0.119 | 0.2746 | 1.7849
Cc1cn2cc(NC(=O)c3ccc(N4CCN(C)CC4)nc3)cc(F)c2n1 [Example 32, N-(8-fluoro-2-methylimidazo-[1,2-a]pyridin-6-yl)-6-(4-methyl-piperazin-1-yl)-nicotinamide] | 0.0938 | 0.2028 | 1.7579
Cc1nc2c(F)cc(NC(=O)c3ccc(N4CCN5CCC[C@@H]5C4)cc3F)cc2o1 [Example 34, (R)-2-fluoro-N-(4-fluoro-2-methyl-benzo[d]oxazol-6-yl)-4-(hexahydro-pyrrolo[1,2-a]-pyrazin-2(1H)-yl)benzamide] | 0.328 | 0.7793 | 1.6527
Cc1cn2cc(NC(=O)c3ccc(N4CCN5CCC[C@H]5C4)cc3F)cc(C(F)(F)F)c2n1 [Example 35, (S)-2-fluoro-4-(hexahydro-pyrrolo[1,2-a]-pyrazin-2(1H)-yl)-N-(2-methyl-8-(trifluoro-methyl)imidazo-[1,2-a]pyridin-6-yl]benzamide] | 0.202 | 1.2664 | 1.6275
Cc1cn2cc(NC(=O)c3ccc(N4CCNCC4)cc3)cc(F)c2n1.Cl [Example 36, N-(8-fluoro-2-methylimidazo[1,2-a]pyridin-6-yl)-4-(piperazin-1-yl)benzamide hydrochloride] | 0.0278 | 0.1094 | 1.7018
Cc1cn2cc(NC(=O)c3ccc(N4CCNCC4)cc3F)cc(F)c2n1 [Example 40, 2-fluoro-N-(8-fluoro-2-methyl-imidazo[1,2-a]-pyridin-6-yl)-4-(piperazin-1-yl)benzamide dihydrochloride] | 0.0108 | 0.0276 | 1.7607
Cc1cn2cc(NC(=O)c3ccc(N4CCNCC4)cc3F)ccc2n1 [Example 44, 2-fluoro-N-(2-methylimidazo[1,2-a]pyridin-6-yl)-4-(piperazin-1-yl)-benzamidehydro-chloride] | 0.0648 | 0.13 | 1.8243
